Data on three compounds can be found in paper PMC7824787, “Design, Synthesis and In Vitro Investigation of Novel Basic Celastrol Carboxamides as Bio-Inspired Leishmanicidal Agents Endowed with Inhibitory Activity against Leishmania Hsp90” (Biomolecules, 2021).

Read-outs that look alike come from different tables or passages of the source.

Broadly, the IC50 is the concentration needed to halve the response being measured. One may read the melting point as the temperature of the solid-liquid transition.

The test system of series [1] is L. infantum promastigotes. Put plainly: Antileishmanial activity on L. infantum promastigotes (MTT). It counts as cell-based. The method, then:
(§1) Promastigote stage of L. infantum (MHOM/TN/80/IPT1, kindly provided by Dr. M. Gramiccia and Dr. T. Di Muccio, ISS, Roma) and L. tropica (MHOM/SY/2012/ISS3130) were cultured in RPMI 1640 medium (EuroClone) supplemented with 15% heat-inactivated fetal calf serum (EuroClone, Milan, Italy), 20 mM HEPES, and 2 mM L-glutamine at 23 °C. The MTT (3-[4.5-dimethylthiazol-2-yl]-2.5-diphenyltetrazolium bromide) method was used to estimate the 50% inhibitory concentration (IC50), with some modifications. Compounds were dissolved in DMSO and then diluted with medium to achieve the required concentrations. Test compounds were placed in 96 wells round bottom microplates and seven serial dilutions made. Amphotericin B was used as the reference antileishmanial drug. Parasites were diluted in complete medium to 5 × 10^6 parasites/mL and 100 μL of the suspension was seeded into the plates and incubated at 23 °C for 72 h. Then 20 μL of MTT solution (5 mg/mL) was added into each well, after 3 h the plates were centrifuged, the supernatants discarded and the resulting pellets dissolved in 100 μL of lysing buffer consisting of 20% (w/v) of a solution of SDS (Sigma), 40% of N,N-dimethylformamide (Merck) in H2O. The absorbance of the obtained solutions was measured at a wavelength of 550 nm with a reference at 650 nm with a microplate spectrophotometer (Synergy 4-Biotek, Milan, Italy) and analyzed with the Gen5® software for data processing.
(§2) The results are expressed as IC50, the dose of compound that is necessary to inhibit cell growth by 50%; each IC50 value is the mean ± standard deviation of at least three separate experiments performed in duplicate.

For series [2], the system named is BMDM. As to the kind of experiment: Cytotoxicity on BMDM (MTT). It counts as cell-based, mouse. The following applies: Mus musculus, BMDM; 72 h, MTT; read-out: Healthy Cell Lines IC50, BMDM. The protocol: (§3) Cytotoxicity was evaluated on human microvascular endothelial cells (HMEC-1, provided by the Centers for Disease Control, Atlanta, GA, USA), on immortalized mouse C57Bl/6 bone marrow derived macrophages (BMDM) from wild type lineage (generated in the laboratories of Drs. Douglas Golenbock and Kate Fitzgerald, University of Massachusetts, Worcester, MA, USA) and on a human acute monocytic leukaemia cell line (THP-1).
(§4) HMEC-1 were maintained in MCDB 131 medium (Invitrogen, Milan, Italy) supplemented with 10% fetal calf serum (HyClone), 10 ng/mL of epidermal growth factor, 1 μg/mL of hydrocortisone, 2 mM glutamine and 20 mM HEPES buffer, at 37 °C in 5% CO2. BMDM were maintained in DMEM (Euroclone) medium supplemented with 10% fetal bovine serum (HyClone, Celbio, Milan, Italy), 2 mM glutamine, and 25 mM of HEPES buffer solution (Euroclone). THP-1 were maintained in RPMI supplemented with 10% heat-inactivated FCS, 50 µM 2-mercaptoethanol, 10 µM sodium pyruvate, 20 mM HEPES, and 2 mM glutamine. In order to achieve differentiation into macrophages, cells were treated with 10 ng/mL phorbol myristate acetate (PMA) for 72 h.
(§5) For the cytotoxicity assay, cells were seeded in 96 well flat bottom tissue culture clusters (Costar, New York, NY, USA) at the following concentrations: HMEC 10^5 cell/mL, BMDM at 10^6 cell/mL, THP1 at 5 × 10^5 cell/mL. After 24 h, cells were treated with serial dilutions of test compounds in a final volume of 200 µL/well. Cell proliferation was evaluated after 72 h using the MTT assay.
(§6) The absorbances were measured with a microplate spectrophotometer (Synergy 4-Biotek) at a test wavelength of 550 nm and a reference wavelength of 650 nm. The results are expressed as IC50 as the concentration inhibiting 50% of cell growth. Each IC50 value is the mean and standard deviation of at least three separate experiments performed in duplicate.

The test system of series [3] is HMEC-1. As to the kind of experiment: Cytotoxicity on HMEC-1 (MTT). In kind it is cell-based, human. The following applies: Homo sapiens, read-out: Healthy Cell Lines IC50, HMEC-1. The method, then:
as §3, §4, §5, §6

The subject of series [4] is THP-1. As to the kind of experiment: Cytotoxicity on THP-1 (MTT). It counts as cell-based, human. The following applies: Homo sapiens, THP-1; PMA-differentiated, 72 h, MTT; read-out: Healthy Cell Lines IC50, THP-1. The method, then:
as §3, §4, §5, §6

Series [5] concerns L. tropica promastigotes. As to the kind of experiment: Antileishmanial activity on L. tropica promastigotes (MTT). It counts as cell-based. The protocol: as §1, §2
Series [6] deals with L. infantum amastigotes. Put plainly: Antileishmanial activity on intramacrophage amastigotes of L. infantum. In kind it is cell-based, Leishmania infantum. The method, then:
Cell monolayers were then washed and incubated in the presence of test compounds for 72 h. Slides were fixed with methanol and stained with Giemsa. The percentage of infected macrophages in treated and non-treated cells was determined by light microscopy.

The target in series [7] is LbHsp90 (Leishmania braziliensis, UniProt A4HL70). Put plainly: In vitro inhibition of the ATPase activity of LbHsp90 (Malachite Green Phosphate Assay). In kind it is biochemical. The following applies: 7 μM LbHsp90, 27 °C, 60 min. The text has this:
To evaluate in vitro the modulatory activity of CE, PR and CE caboxamides, a full-length recombinant Hsp90 from L. braziliensis (LbHsp90) was produced in E. coli BL21 DE3 harboring the pET28a_LbHsp90 coding for the C-terminal His-tagged target chaperone (genbank number: XP_001567804.1, full sequence is reported in Appendix B). Pratically, the plasmid pET28a_LbHsp90, kindly donated by professor J.C. Borges, was transformed in E. coli BL21 DE3 using the TransformAid Bacterial Transformation Kit (Thermo Fisher, Waltham, MA, USA). Subsequently, the obtained transformants were grown overnight in LB medium containing 30 μg mL^−1 kanamycin (LBkan30) and then inoculated in 1 L SB kan30 medium (Yeast extract 30 g L^−1, Tryptone 20 g L^−1, NaCl 10 g L^−1) at 37 °C and 220 rpm. When the OD600 reached 0.5–1, gene expression was induced by the addition of 2 mL of 1 M IPTG solution in water and the culture was shifted at 30 °C for 24 h. After cell harvesting by centrifugation (5000 rpm for 30 min), the cell pellet was resuspended in 20 mL of wash buffer (20 mM HEPES buffer, pH 7.0, 500 mM NaCl, 20 mM imidazole) and recombinant E. coli BL21DE3 cells were disrupted by ultrasonication. LbHsp90 was subsequently purified using a Nickel Sepharose 6 Fast Flow agarose resin (Ni-NTA) (GE Healthcare, Milan, Italy) as follows. Soluble protein fraction was separated from cell debris by centrifugation (10,000 rpm for 30min) after cell ultrasonication, and clear lysates were incubated with the Ni-NTA resin for 90 min at 4 °C under mild shaking and loaded onto a glass column (10 × 110 mm). The resin was then washed with 10mL of wash buffer and His-tagged LbHsp90 was eluted using a 3 step gradient (10 mL washing buffer containing 100, 200, and 300 mM imidazole, respectively) and dialyzed against 20 mM HEPES buffer (20 mM, pH 7.5), at 4 °C overnight. The protein content was measured using the Bio-Rad Protein Assay (Hercules, CA, USA) according to the Bradford method and the protein purity was verified by SDS-PAGE analysis (10% T, 2.6% C). It is worth noting that to avoid interferences with the assays described below, proteins were purified and conserved in HEPES buffer (20 mM, pH 7.5) in place of the standard PB-buffer. Reported data are the mean of two experiments run in duplicate.
Modulatory activity toward the ATPase cycle of LbHsp90 was determined using a Malachite Green Phosphate Assay Kit (Catalog Number MAK307, Sigma-Aldrich®, St. Louis, MO, USA). Analyses were run in a 96-well plate directly following the quantitative formation of a green complex between Malachite Green, molybdate, and free orthophosphate (Pi) produced by ATP hydrolysis catalyzed by the chaperone. Color formation from the reaction was measured on a plate reader at 620 nm. Briefly, the IC50 of CE and its derivatives were extrapolated from a set of dose-response curves obtained by calculating the amount of Pi produced by LbHsp90 in the presence of different compounds concentrations.
Reactions were run in HEPES buffer (20 mM, pH 7.5) containing 3 mM MgCl2 and 50 mM KCl in the presence of different compounds concentrations ([…]), LbHsp90 (7 μM) and ATP (25 mM) at 27 °C for 60 min. OD620 was measured 30 min after Malachite Green reactants addition.
LbHsp90 native activity was measured by conducting the reaction in the presence of just LbHsp90 and ATP and extrapolating the concentration of Pi obtained.
Three sets of control experiments, (1) ATP background hydrolysis, (2) compounds-related interferences and (3) protein-related background coloration, were run as follow: • (1) ATP (25 mM) incubated at 27 °C for 60 min • (2) Compounds (different concentrations) incubated with ATP (25 mM) at 27 °C for 60 min • (3) LbHsp90 (7 μM) at 27 °C for 60 min
The in vitro performances of CE, PR and the carboxamides 1–11 (Figure 4) as potential inhibitors of the Leishmania braziliensis Hsp90 were investigated using Sigma-Aldrich® Malachite Green Phosphate Assay Kit. […]

The mark [8] stands for this setting: Leishmania infantum, 72 h, 23 °C, MTT, read-out: Leishmania Promastigotes IC50, L. infantum.
Where [9] appears, read: Leishmania tropica, 72 h, 23 °C, MTT, read-out: Leishmania Promastigotes IC50, L. tropica.

Chain of LbHsp90 (A4HL70 entry or part of it): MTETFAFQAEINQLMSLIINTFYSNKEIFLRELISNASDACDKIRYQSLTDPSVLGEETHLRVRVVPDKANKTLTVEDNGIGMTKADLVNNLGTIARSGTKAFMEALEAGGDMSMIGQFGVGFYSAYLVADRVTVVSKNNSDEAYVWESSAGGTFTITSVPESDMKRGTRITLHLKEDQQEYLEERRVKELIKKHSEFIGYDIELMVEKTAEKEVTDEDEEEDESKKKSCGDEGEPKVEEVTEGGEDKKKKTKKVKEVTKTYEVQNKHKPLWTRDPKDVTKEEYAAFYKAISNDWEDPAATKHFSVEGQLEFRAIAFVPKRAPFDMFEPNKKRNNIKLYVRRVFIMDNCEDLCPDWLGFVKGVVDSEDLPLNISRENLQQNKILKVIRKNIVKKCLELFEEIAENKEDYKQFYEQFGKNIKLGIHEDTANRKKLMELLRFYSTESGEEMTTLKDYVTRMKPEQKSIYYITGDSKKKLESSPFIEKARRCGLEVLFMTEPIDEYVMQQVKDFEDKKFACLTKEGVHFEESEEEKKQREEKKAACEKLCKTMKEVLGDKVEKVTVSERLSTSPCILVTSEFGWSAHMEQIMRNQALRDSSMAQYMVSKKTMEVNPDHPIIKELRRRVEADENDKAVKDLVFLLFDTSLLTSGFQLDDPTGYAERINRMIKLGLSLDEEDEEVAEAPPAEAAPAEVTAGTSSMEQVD

On to `C[C@@H]1[C@H](O)[C@@H](C)/C=C/C=C/C=C/C=C/C=C/C=C/C=C/[C@H](O[C@@H]2O[C@H](C)[C@@H](O)[C@H](N)[C@@H]2O)C[C@@H]2O[C@](O)(C[C@@H](O)C[C@@H](O)[C@H](O)CC[C@@H](O)C[C@@H](O)CC(=O)O[C@H]1C)C[C@H](O)[C@H]2C(=O)O` [AMP, amphotericin B, reference compound], for which the IC50 in series [1] (setting [8]) is 0.16 ± 0.05 µM; in series [2] it was over 20 µM; in series [3] (HMEC-1, 72 h, MTT), over 20 µM; in series [4], over 20 µM; in series [5] (setting [9]) it was 0.17 ± 0.02 µM; in series [6] (Leishmania infantum, infected THP-1 macrophages, 72 h) it was 0.18 ± 0.03 µM. In addition, in series [6] (ratio IC50 on THP-1 cell line / IC50 toward L. infantum amastigotes), the “S.I. (selectivity index)” value was over 109.
On to `CC1=C(O)C(=O)C=C2C1=CC=C1[C@@]2(C)CC[C@@]2(C)[C@@H]3C[C@](C)(C(=O)NCCCNc4ccnc5cc(Cl)ccc45)CC[C@]3(C)CC[C@]12C` [compound 7, (2R,4aS,6aS,12bR,14aS,14bR)-N-(3-((7-chloroquinolin-4-yl)amino)propyl)-10-hydroxy-2,4a,6a,9,12b,14a-hexamethyl-11-oxo-1,2,3,4,4a,5,6,6a,11,12b,13,14,14a,14b-tetradecahydropicene-2-carboxamide], for which the melting point was 211.1 to 215 °C. In addition, in series [1] (setting [8]), the IC50 is 0.2 ± 0.01 µM. In addition, the IC50 in series [2] came out at 1.78 ± 0.53 µM. Moreover, in series [3] (HMEC-1, 72 h, MTT), the IC50 amounted to 0.13 ± 0.01 µM. Besides, the IC50 in series [4] was determined as 0.48 ± 0.17 µM. For the same compound, in series [7], the IC50 was over 125 µM. In series [5] (setting [9]), the half-maximal inhibitory concentration (IC50) is 0.15 ± 0.04 µM.
The compound `C=CCSSCCNC(=O)[C@]1(C)CC[C@]2(C)CC[C@]3(C)C4=CC=C5C(=CC(=O)C(O)=C5C)[C@]4(C)CC[C@@]3(C)[C@@H]2C1` [compound 10, (2R,4aS,6aS,12bR,14aS,14bR)-N-(2-(allyldisulfanyl)ethyl)-10-hydroxy-2,4a,6a,9,12b,14a-hexamethyl-11-oxo-1,2,3,4,4a,5,6,6a,11,12b,13,14,14a,14b-tetradecahydropicene-2-carboxamide] returned a melting point of 173.7 to 175.1 °C. Besides, the 50% inhibitory concentration (IC50) in series [1] (Leishmania infantum; 72 h, 23 °C, MTT; read-out: Leishmania Promastigotes IC50, L. infantum) is 0.46 ± 0.12 µM. Moreover, the IC50 in series [2] is 2.86 ± 0.17 µM. For the same compound, the 50% inhibitory concentration (IC50) in series [3] (HMEC-1, 72 h) was found to be 0.17 ± 0.04 µM. Besides, the half-maximal inhibitory concentration (IC50) in series [4] came out at 0.93 ± 0.27 µM. For the same compound, the IC50 in series [7] is over 125 µM. In addition, in series [5] (Leishmania tropica; 72 h, 23 °C, MTT; read-out: Leishmania Promastigotes IC50, L. tropica), the half-maximal inhibitory concentration (IC50) was 0.34 ± 0.21 µM.
